Data reported in US20220409587A1, “METHODS OF TREATING HIV-1 INFECTION” (BIOTRON LIMITED, priority 2019, published 2022).
“And” between values parts separate entries of the source, which are not always exact repeats. Equal values may be shown once. “Also recorded” adds a separate entry of the source.

Columns and labels:
Format in all cases: in vivo, human
HIV-1 = test: Phase 2 study: plasma HIV-1 viral load decay (Roche COBAS TaqMan HIV-1); details: 200 mg BIT225 QD + ART vs placebo QD + ART, 12 weeks, treatment-naive HIV-1 patients
Experimental: (§1) A Phase 2, multi-centre, randomized, placebo-controlled, double-blind study of BIT225 in combination with ART (Atripla—efavirenz/emtricitabine/tenofovir DF) was undertaken in patients with HIV-1 infection that were treatment-naive. Patients were randomized into two groups on a 2:1 basis, with one group receiving BIT225 (100 mg QD; 6 patients: placebo; 3 patients), and one group receiving BIT225 (200 mg QD, 18 patients: placebo; 9 patients), with a total of 36 patients enrolled in the trial. The 100 mg BIT225 group was primarily included for detailed PK analyses due to limitations on the quantity of blood that could be drawn at time points coinciding with analyses of viral load decay, which were limited to the 200 mg cohort. All subjects received the standard dose of ART in addition to 12 weeks BIT225 or placebo study treatment. At the conclusion of the trial, patients remained on ART as per standard treatment protocols. HIV-1-infected subjects, males and females, aged 18 to 65 years inclusive, who were naive to ART were recruited. Individuals had HIV-1 RNA>5,000 copies/mL and CD4^+ T cell count>100 cells/mm^3.
(§2) There were two treatment cohorts. The first cohort received 100 mg capsule of BIT225 or placebo QD with ART for 12 weeks. […]
HIV-1 plasma viral load was determined in real time by Roche COBAS TaqMan HIV-1 currently approved version (Roche Diagnostics).

[1] = system: activated CD4^+ T cells (CD4^+/HLA-DR^+/CD38^+); test: Phase 2 study: activated CD4+ T cell numbers by flow cytometry
Experimental: as §1, with “Individuals had HIV-1 RNA>5,000 copies/mL and CD4^+ T cell count>100 cells/mm^3.” left out
(§3) Analyses for cell populations (T cells and NK cells) were performed in real time by flow cytometry (CD4^+, CD8^+, CD38^+, and HLA-DR^+ for T cells, and CD16^+, CD45^+ and CD56^+ for NK cells). […] Immune activation markers measured by flow cytometry were performed in real time alongside CD4^+, CD8^+ and CD14^+ enumeration at HIV-NAT laboratory, Bangkok Thailand.

[2] = system: activated CD8^+ cell (CD8^+/HLA-DR^+/CD38^+); test: Phase 2 study: activated CD8+ T cell numbers by flow cytometry; details: 200 mg BIT225 QD + ART vs placebo + ART, 12 weeks; ±29 SEM; P<0.01
Experimental: as §1, with “Individuals had HIV-1 RNA>5,000 copies/mL and CD4^+ T cell count>100 cells/mm^3.” left out
as §3

NK cells = test: Phase 2 study: NK cell numbers by flow cytometry
Experimental: as §1
There were two treatment cohorts. The first cohort received 100 mg capsule of BIT225 or placebo QD with ART for 12 weeks. Cohort 2 were given two 100 mg capsules BIT225 (200 mg BIT225) or placebo QD with ART. ART was 1 fixed dose combination tablet of Atripla.
Analyses for cell populations (T cells and NK cells) were performed in real time by flow cytometry (CD4^+, CD8^+, CD38^+, and HLA-DR^+ for T cells, and CD16^+, CD45^+ and CD56^+ for NK cells). ELISA assays were run for sCD163 and Th17 related cytokines. Immune activation markers measured by flow cytometry were performed in real time alongside CD4^+, CD8^+ and CD14^+ enumeration at HIV-NAT laboratory, Bangkok Thailand.

soluble CD163 (sCD163) = test: Phase 2 study: plasma sCD163 by Macro163 ELISA
Experimental: as §1, §2
The macrophage and monocyte activation marker sCD163 was measured in plasma by Macro163™ ELISA (IQ Products, Groningen, The Netherlands).

IL-21 = test: Phase 2 study: plasma Th17 related cytokines (MSD U-Plex), IL-21
Experimental: as §1, with “At the conclusion of the trial, patients remained on ART as per standard treatment protocols. HIV-1-infected subjects, males and females, aged 18 to 65 years inclusive, who were naive to ART were recruited. Individuals had HIV-1 RNA>5,000 copies/mL and CD4^+ T cell count>100 cells/mm^3.” left out
(§4) Th17 cells regulate other immune cells, specifically neutrophils and macrophages, by secreting a variety of cytokines in response to pathogens. Plasma samples were analysed to determine the level of the Th17 related cytokines (IL-21, IFN-γ, IL-1p, IL-6, IL-10, IL-17A, IL-17E/IL-25, IL-17F, IL-22, and TNF-α) during the 12 week treatment period using electro-chemiluminescence MSD U-Plex Biomarker Group Th17 (Human Combo 2) Human Multiplex Assay (MesoScaleDiscovery, MD, USA).

IFN-γ = test: Phase 2 study: plasma Th17 related cytokines (MSD U-Plex), IFN-γ
Experimental: as §1, with “At the conclusion of the trial, patients remained on ART as per standard treatment protocols. HIV-1-infected subjects, males and females, aged 18 to 65 years inclusive, who were naive to ART were recruited. Individuals had HIV-1 RNA>5,000 copies/mL and CD4^+ T cell count>100 cells/mm^3.” left out
as §4

IL-6 = test: Phase 2 study: plasma Th17 related cytokines (MSD U-Plex), IL-6
Experimental: as §1, with “At the conclusion of the trial, patients remained on ART as per standard treatment protocols. HIV-1-infected subjects, males and females, aged 18 to 65 years inclusive, who were naive to ART were recruited. Individuals had HIV-1 RNA>5,000 copies/mL and CD4^+ T cell count>100 cells/mm^3.” left out
as §4

IL-10 = test: Phase 2 study: plasma Th17 related cytokines (MSD U-Plex), IL-10; details: BIT225 cohort vs placebo (data not shown)
Experimental: as §1, with “At the conclusion of the trial, patients remained on ART as per standard treatment protocols. HIV-1-infected subjects, males and females, aged 18 to 65 years inclusive, who were naive to ART were recruited. Individuals had HIV-1 RNA>5,000 copies/mL and CD4^+ T cell count>100 cells/mm^3.” left out
as §4

`Cn1cc(-c2cccc3cc(C(=O)NC(=N)N)ccc23)cn1` [BIT225, N-carbamimidoyl-5-(1-methylpyrazol-4-yl)naphthalene-2-carboxamide] was tested, and the “Plasma HIV-1 RNA decline versus placebo” value (HIV-1) was “declined in a similar manner”, the “Time activated CD4+ T cells remained elevated” value ([1]; 100 mg BIT225 QD + ART (data not shown)) was “approximately 50 days” and the “Change from baseline of activated CD4+ T cell numbers compared to placebo” value ([1]; 200 mg BIT225 QD + ART vs placebo + ART, 12 weeks) was “sustained delay in decline; also recorded: statistically significant delayed reduction”. The “Estimated average difference in activated CD8+ T cells, BIT225 cohort versus placebo (two-factor linear model)” value [2] was 85 cells/ml, the “Estimated average difference in NK cells, BIT225 cohort versus placebo (two-factor linear model)” value (NK cells; 200 mg BIT225 QD + ART vs placebo + ART, 12 weeks, SEM, P<0.01) was 71 cells/ml and 71±23 cells/ml and the “Time to peak of NK cell numbers after commencing treatment” value (NK cells; BIT225 + ART) was 24 to 48 h. For the same molecule, the “NK cell numbers during treatment versus placebo” value (NK cells; BIT225 + ART, 12-week treatment) was “remained higher”, the “Linear model estimate β1 of larger overall decrease in sCD163 for BIT225 versus placebo” value (soluble CD163 (sCD163); 200 mg BIT225 QD + ART vs placebo + ART, 12 weeks, ±SE, P=0.036) was 208 ± 99 ng/mL and the “sCD163 over 12 weeks compared to ART alone” value (soluble CD163 (sCD163); BIT225 + ART vs ART + placebo) was “significantly reduced; also recorded: statistically significant decline”. For the same molecule, the “Plasma IL-21 versus placebo over the first 3 weeks (ANOVA)” value (IL-21; 200 mg BIT225 QD + ART vs placebo + ART, P=0.02) was “statistically significant increase; also recorded: statistically significantly increased”, the “Time of peak plasma IL-21” value (IL-21; BIT225 + ART) was 3 week and the “Subjects with IFN-γ transient spike” value (IFN-γ; BIT225 cohort (data not shown)) was 16 of 18. For the same molecule, the “IFN-γ cohort mean response” value (IFN-γ; BIT225 cohort + ART) was “transient spike at Day 14”, the “Subjects with transient spike of plasma IL-6 in first 3 weeks” value (IL-6; BIT225 + ART) was 8 of 18 and the “IL-6 response after 3 weeks, change from baseline (Log10)” value (IL-6; BIT225 cohort vs placebo (data not shown)) was “remained higher than placebo”. The “IL-10 levels versus placebo over 12 weeks” value (IL-10) was “not statistically significant”.
